Source: paper PMC12040169 (PLOS Biology, 2025)

Experiment: in vitro
Settings: human, hela cells, % viability

SMILES | viability at 28.5 h, 10 µM [%]
COc1ccc(OCCCn2ccn(C(=O)CCCOc3ccc(Cl)cc3)c2=O)cc1 [CBK106662] | 94.3
COc1ccc(C(NC(=O)C2CC=CCC2C(=O)O)c2ccccc2)cc1 (centres unmarked) [CBK264264] | 91.6
Cc1ccc([N+](=O)[O-])c(OCCNCCN(C)C)c1 [CBK267822C] | 89
CC(C)Cn1c(=O)c2c(nc3n2CCS3)n(C)c1=O [CBK307109] | 98.1
Cc1c(C(N)=O)sc(NC(=O)c2cccnc2)c1C#N [CBK268163] | 105
CC(=O)c1cc(C(=O)N(C)CCOc2ccccc2)cs1 [CBK282560] | 99.6
Cn1c(=O)[nH]c(=O)c2[nH]c(CN3CCN(Cc4ccccc4)CC3)nc21 [CBK269592] | 98.5
Cc1ccc2[nH]cc(CCNC(=O)c3cccc(NC(=O)c4ccccc4)c3)c2c1 [CBK269235] | 86.6
CCN(CC)C(=O)CNS(=O)(=O)c1cc(Br)c(Cl)s1 [CBK034500] | 112
C=CCS(=O)(=O)N1CCC(c2nc(C)n3c(C)csc23)CC1 [CBK285251] | 80
CN1[C@@H]2CC[C@H]1C[C@@H](N1Cc3cc4ccccc4n3C1=O)C2 [CBK017722] | 124
Cc1ccc(S(=O)(=O)CC(=O)Nc2ncccn2)cc1 [CBK269800] | 97.3
Cc1cc(O)cc(O)c1/C=N\NC(=O)C1COc2cc3ccccc3cc2O1 (centres unmarked) [CBK262809] | 80.4
C[C@@H]1[C@H](c2ccccc2)OC(=O)N1C1CCN(S(=O)(=O)c2cccs2)CC1 [CBK043302] | 93.9
Cc1ccc(-n2cc(-c3ccccc3)[nH]c2=O)cc1 [CBK288103] | 101
COc1ccc(S(=O)(=O)NCCc2ccc(S(N)(=O)=O)cc2)cc1[N+](=O)[O-] [CBK267598] | 94.1
COc1ccc(N2CCN(c3cc(C)nc4cc(-c5nccn5C)nn34)CC2)cc1 [CBK286187] | 87.8
O=C(CSCc1ccccc1)Nc1ccc(O)cc1C(=O)O [CBK126817] | 103
Cc1ccc(NC2=N[C@H]3[C@@H](O)[C@H](O)C[C@H](C(=O)N4CCCCC4)[C@H]3S2)cc1 [CBK288951] | 94.7
Cc1cccc(=O)n1CCCNc1cc(C2CCOC2)nc(N)n1 (centres unmarked) [CBK307030] | 81.9
N#C/C(=C\c1cn(-c2ccccc2)nc1-c1cccc(S(=O)(=O)N2CCCCCC2)c1)c1nc2ccccc2c(=O)[nH]1 [CBK266347] | 103

SMILES | viability at 28.5 h, 10 µM [%]
Fc1ccc(CN2CC3CCCC(C2)C3N2CCOCC2)cc1F (centres unmarked) [CBK282270] | 95.8
O=C(c1ccccc1)c1ccc2n1CCC2C(=O)Nc1ccccc1F (centres unmarked) [CBK300530] | 90.5
COc1ccc2nc(-n3nc(C(=O)NCc4ccncc4)c4ccccc43)sc2c1 [CBK048521] | 94.9
O=C(NC1CCS(=O)(=O)C1)c1cnc2c(Cl)cccc2c1O (centres unmarked) [CBK304644] | 87.4
Cc1nnc(Sc2nc3ccccc3nc2NC(C)C)s1 [CBK093731] | 90.6
COc1cc(C(=O)NCc2c(-c3ccccc3)noc2C)cc(OC)c1OC [CBK144097] | 93.9
CC(=O)c1c(C)nn(C(C)CC(=O)Nc2ccc(Cl)c(Cl)c2)c1C (centres unmarked) [CBK270021] | 87.3
O=C(c1coc2ccc(O)c(CN3CCCCC3)c12)C1CC1 [CBK263206C] | 93.7
O=C(NC(NCc1ccc2c(c1)OCO2)(C(F)(F)F)C(F)(F)F)c1cccnc1 [CBK074397] | 78.8
Cc1cc(C)n(-c2nc3cc(Cl)ccc3nc2NCc2ccc3c(c2)OCO3)n1 [CBK268482] | 106
O=S(=O)(CC(F)(F)F)Nc1ccc(N2CCNCC2)c2ccccc12 [CBK059354C] | 90.6
CC(NC(=S)Nc1ccc(S(N)(=O)=O)cc1)c1ccncc1 (centres unmarked) [CBK267073] | 111
Cc1ccc(C2CCCN2C(=O)Cn2cccc(C(=O)NCc3ccccc3)c2=O)cc1C (centres unmarked) [CBK286074] | 89.5
Cc1noc(C)c1S(=O)(=O)Nc1c(C(=O)Nc2ccc(F)cc2)[nH]c2ccccc12 [CBK050099] | 119
O=S(=O)(c1ccc2nc(-c3ccccc3)c(-c3ccc(O)cc3)nc2c1)c1ccc2nc(-c3ccccc3)c(-c3ccc(O)cc3)nc2c1 [CBK261148] | 108
COCCNC(=O)CSc1cc(Cl)nc(Cl)c1 [CBK020796] | 88.3
O=C(CSc1nnc(-c2ccncc2)n1Cc1ccccc1)Nc1ccc(Cl)cc1 [CBK269346] | 97.3
COc1ccc2cc(C(=O)N3CCC(c4ccncc4)CC3)[nH]c2c1 [CBK283799] | 86.4
O=C(O)CNC(=O)Cn1ccc2ccc(OCc3ccccc3)cc21 [CBK286644] | 85.9
Cc1ccc(C(=O)Nc2cccc(-c3nc4ncccc4o3)c2C)cc1[N+](=O)[O-] [CBK262793] | 94.3
COc1ccc(C(NC(=O)COc2c(Cl)cc(C(=O)O)cc2Cl)C(C)C)cc1 (centres unmarked) [CBK295344] | 87.3

SMILES | viability at 28.5 h, 10 µM [%]
O=C(CN1CCCC(c2cccc(Cc3ccc(F)cc3)n2)C1)Nc1nccs1 (centres unmarked) [CBK286503] | 93.1
O=c1ccc2c(-c3cccc(OCc4ccccc4)c3)ccnc2[nH]1 [CBK073739] | 87.6
O=C(CSc1nc2ccccc2n1Cc1ccccc1)N/N=C/c1ccco1 [CBK263174] | 89.6
CC(Sc1ccc(Cl)cc1)C(=O)Nc1ccc(S(=O)(=O)Nc2ccc(Cl)cc2)cc1 (centres unmarked) [CBK264805] | 97.9
CC(C)(C)OC(=O)N1CCC[C@@H](C(=O)c2cccnc2)C1 [CBK284284] | 98.2
CC(NC(=O)N(Cc1cccc2ccccc12)C1CCC(N)CC1)c1cccc2ccccc12 (centres unmarked) [CBK000482C] | 67.8
c1ccc(C(NCc2nnc(-c3ccco3)o2)C2CCC2)cc1 (centres unmarked) [CBK305818] | 84.7
Cc1ccccc1Nc1nc(-c2ccc([N+](=O)[O-])cc2)nc2ccccc12 [CBK264803] | 119
O=C(c1cncnc1)N1CCC(F)CC1 [CBK200384] | 92.1
CCCOc1ccc(CCNc2ncnc(N)n2)cc1 [CBK262744] | 90.1
c1cnc(N2CCCC2)c(OC2CCOC2)n1 (centres unmarked) [CBK115891] | 91.2
Cc1nc(-c2n[nH]cc2-c2ccccc2F)sc1CCN [CBK281578] | 102
O=S(=O)(c1ccccc1C(F)(F)F)n1ccc2c(N3CCNCC3)nccc21 [CBK045605C] | 99.5
O=C(CC1CCCC1)NCCn1nc(-c2cccs2)ccc1=O [CBK283841] | 91.8
COc1cc(CNc2cc(C(=O)O)ccc2C)cc(Br)c1OC [CBK269679] | 95.3
Cc1onc(-c2ccccc2)c1C(=O)Nc1ccccc1N1CCCNCC1 [CBK038929T] | 96.9
CN1C2CCC1CC(OC(c1ccccc1)c1ccccc1)C2 (centres unmarked) [CBK011710G] | 99.6
COc1cc(NC(=O)N2CCCCC2CO)cc(OC)c1OC (centres unmarked) [CBK155986] | 92
Cc1cc(C)n(-c2cccc(CN3CCC(CO)C3)c2)n1 (centres unmarked) [CBK282928] | 94.8
COc1ccc([C@@]23CC[C@@H](NC(=O)Nc4ccnc5ccccc45)C[C@@H]2N(C)CC3)cc1OC [CBK045699] | 100
